{
  "source": "ChEMBL document CHEMBL2086269",
  "about": "“Identification of new snake venom metalloproteinase inhibitors using compound screening and rational Peptide design” (ACS Med Chem Lett, 2012)",
  "key": {"[1]": {"molecular_target": "T1, Snake venom metalloproteinase BaP1 (Bothrops asper, UniProt P83512)", "T1 sequence (P83512 whole entry)": "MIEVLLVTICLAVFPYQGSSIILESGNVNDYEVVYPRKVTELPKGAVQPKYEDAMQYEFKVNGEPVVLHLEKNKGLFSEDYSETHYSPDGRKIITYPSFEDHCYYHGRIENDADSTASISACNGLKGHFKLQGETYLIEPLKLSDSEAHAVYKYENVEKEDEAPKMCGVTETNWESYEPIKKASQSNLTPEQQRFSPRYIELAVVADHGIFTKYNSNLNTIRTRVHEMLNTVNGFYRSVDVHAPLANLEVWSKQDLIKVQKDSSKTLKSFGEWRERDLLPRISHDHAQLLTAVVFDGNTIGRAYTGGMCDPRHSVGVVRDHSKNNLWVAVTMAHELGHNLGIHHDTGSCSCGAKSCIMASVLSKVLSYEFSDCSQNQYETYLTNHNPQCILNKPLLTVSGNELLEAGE", "assay": "Inhibition of snake venom BaP1 using Abz-Ala-Gly-Leu-Ala-Nba as substrate incubated for 30 mins prior to substrate addition by fluorescence spectrophotometry"}, "[2]": {"assay": "Displacement of PAC1 from Zn2+ incubated for 30 mins prior to PAC1 addition measured after 30 mins by spectrophotometry"}},
  "note": "Where a name gives a salt, the structure may show the parent alone. Activity calls are given as the source filed them. The rule behind the calls is not given here. Residues, ends and D or L forms follow the SMILES beside them. *: point of attachment. NHOH = ON*",
  "data": [
    {"smiles": "CC(C)C[C@H](NC(=O)[C@@H](N)Cc1c[nH]c2ccccc12)C(=O)N[C@@H](CCCNC(=N)N)C(=O)NO", "values": [
      {"measurement": "IC50", "setting": "[1]", "result": 217, "unit": "µM"}
    ]},
    {"smiles": "CC(C)C[C@H](NC(=O)[C@@H](N)Cc1ccccc1)C(=O)N[C@@H](CCCNC(=N)N)C(=O)NO", "note": "(H-Phe-Leu-Arg-{NHOH})", "values": [
      {"measurement": "Activity", "setting": "[2]", "result": "Active"},
      {"measurement": "IC50", "setting": "[1]", "result": 4.6, "unit": "µM"}
    ]},
    {"smiles": "CC(C)C[C@H](NC(=O)[C@@H](N)Cc1ccccc1)C(=O)N[C@@H](Cc1cnc[nH]1)C(=O)NO", "note": "(H-Phe-Leu-His-{NHOH})", "values": [
      {"measurement": "IC50", "setting": "[1]", "result": 108, "unit": "µM"}
    ]},
    {"smiles": "CC(C)C[C@H](NC(=O)[C@@H](N)Cc1ccccc1)C(=O)N[C@@H](Cc1ccccc1)C(N)=O", "note": "(H-Phe-Leu-Phe-NH2)", "values": [
      {"measurement": "IC50", "setting": "[1]", "result": 825, "unit": "µM"}
    ]},
    {"smiles": "CC(C)C[C@H](NC(=O)[C@@H](N)Cc1ccccc1)C(=O)N[C@@H](Cc1ccccc1)C(=O)NO", "note": "(H-Phe-Leu-Phe-{NHOH})", "values": [
      {"measurement": "Activity", "setting": "[2]", "result": "Active"},
      {"measurement": "IC50", "setting": "[1]", "result": 0.5, "unit": "µM"}
    ]},
    {"smiles": "CC(C)C[C@H](NC(=O)[C@@H](N)Cc1ccccc1)C(=O)N[C@@H](Cc1ccc(O)cc1)C(N)=O", "note": "(H-Phe-Leu-Tyr-NH2)", "values": [
      {"measurement": "IC50", "setting": "[1]", "result": "> 1000", "unit": "µM"}
    ]},
    {"smiles": "CC(C)C[C@H](NC(=O)[C@@H](N)Cc1ccccc1)C(=O)N[C@@H](Cc1ccc(O)cc1)C(=O)NO", "note": "(H-Phe-Leu-Tyr-{NHOH})", "values": [
      {"measurement": "IC50", "setting": "[1]", "result": 30.9, "unit": "µM"}
    ]},
    {"smiles": "CC(C)C[C@H](NC(=O)[C@@H](N)Cc1c[nH]c2ccccc12)C(=O)N[C@@H](Cc1cnc[nH]1)C(=O)NO", "note": "(H-Trp-Leu-His-{NHOH})", "values": [
      {"measurement": "IC50", "setting": "[1]", "result": 58.4, "unit": "µM"}
    ]},
    {"smiles": "CC(C)C[C@H](NC(=O)[C@@H](N)Cc1c[nH]c2ccccc12)C(=O)N[C@@H](Cc1ccccc1)C(N)=O", "note": "(H-Trp-Leu-Phe-NH2)", "values": [
      {"measurement": "IC50", "setting": "[1]", "result": "> 1000", "unit": "µM"}
    ]},
    {"smiles": "CC(C)C[C@H](NC(=O)[C@@H](N)Cc1c[nH]c2ccccc12)C(=O)N[C@@H](Cc1ccccc1)C(=O)NO", "note": "(H-Trp-Leu-Phe-{NHOH})", "values": [
      {"measurement": "IC50", "setting": "[1]", "result": 34.2, "unit": "µM"}
    ]},
    {"smiles": "CC(C)C[C@H](NC(=O)[C@@H](N)Cc1c[nH]c2ccccc12)C(=O)N[C@@H](Cc1ccc(O)cc1)C(N)=O", "note": "(H-Trp-Leu-Tyr-NH2)", "values": [
      {"measurement": "IC50", "setting": "[1]", "result": 402, "unit": "µM"}
    ]},
    {"smiles": "CC(C)C[C@H](NC(=O)[C@@H](N)Cc1c[nH]c2ccccc12)C(=O)N[C@@H](Cc1ccc(O)cc1)C(=O)NO", "note": "(H-Trp-Leu-Tyr-{NHOH})", "values": [
      {"measurement": "IC50", "setting": "[1]", "result": 46.2, "unit": "µM"}
    ]},
    {"smiles": "CNC(=O)[C@H](Cc1ccccc1)NC(=O)[C@H](CC(C)C)[C@H](CSc1cccs1)C(=O)NO", "note": "[BATIMASTAT]", "values": [
      {"measurement": "IC50", "setting": "[1]", "result": 1.2, "unit": "µM"}
    ]},
    {"smiles": "COc1ccc2c3c([nH]c2c1)C(C)=NCC3", "note": "[HARMALINE HYDROCHLORIDE DIHYDRATE]", "values": [
      {"measurement": "IC50", "setting": "[1]", "result": 70.4, "unit": "µM"}
    ]},
    {"smiles": "NC(=O)N/N=C/c1ccc([N+](=O)[O-])o1", "note": "[NITROFURAZONE]", "values": [
      {"measurement": "IC50", "setting": "[1]", "result": 88.1, "unit": "µM"}
    ]},
    {"smiles": "COc1cc2c(cc1OC)-c1cc3ccc(OC)c(OC)c3c[n+]1CC2", "note": "[PALMATINE CHLORIDE]", "values": [
      {"measurement": "IC50", "setting": "[1]", "result": 93.3, "unit": "µM"}
    ]},
    {"smiles": "Nc1ccc(/N=N/c2ccccc2)c(N)n1", "note": "[PHENAZOPYRIDINE HYDROCHLORIDE]", "values": [
      {"measurement": "IC50", "setting": "[1]", "result": 54.3, "unit": "µM"}
    ]}
  ]
}
